Results published in US8461125B2, “Compositions and methods to treat asthma” (The Children's Hospital of Philadelphia, priority 2008, dated 2013).

How the values were obtained:
rabbit ASM tissues = assay: Constrictor and relaxation responsiveness in isolated rabbit ASM tissues (organ bath, isometric tension); details: rabbit ASM tissues exposed 24 hr to IgE immune complexes, pretreatment 10 μM
Source text: The following materials and methods are provided to facilitate practice of the present invention: • Materials: All chemicals were purchased from Sigma-Aldrich unless otherwise indicated. The human ASM cells were obtained from BioWhittaker, Inc. • Animals: Adult New Zealand White rabbits were used in this study, which was approved by the Biosafety and Animal Research Committee of the Joseph Stokes Research Institute at Children's Hospital of Philadelphia. The animals had no signs of respiratory disease for several weeks before the study, and their care and use were in accordance with the “Guide for the Care and Use of Laboratory Animals” prepared by the Institute of Laboratory Animal Resources, National Research Council. • Immunization protocol: Rabbits were actively immunized by an intra-peritoneal injection of 1 ml of an emulsion containing ovalbumin (OVA; 2.5 mg in PBS) mixed in equal part with adjuvant, administered each week for 3 weeks and, thereafter, every alternate week for a one month period. Non-immunized rabbits receiving injections with PBS alone served as controls. Thereafter, the rabbits were challenged by airway administration of a 3% solution of OVA. […]

cAMP PDE4 activity = assay: cAMP PDE activity in isolated rabbit ASM tissues after pro-asthmatic sensitization; details: FIG. 7B; rabbit ASM tissues sensitized 24 hr with IgE immune complexes
CD23a mRNA = assay: siRNA-mediated knockdown of CD23a mRNA expression in cultured human ASM cells (RT-PCR); assay type: cell-based; details: 100 nM each siRNA duplex; for CD23a mRNA expression (constitutive): FIG. 2, human ASM cells, control conditions, Oligofectamine-mediated transfection; for CD23a mRNA expression in IL-13-treated ASM cells / CD23a mRNA expression in vehicle-exposed ASM cells: FIG. 3, Oligofectamine transfection; for CD23a mRNA expression in IL-13-treated ASM cells: human ASM cells exposed 12 hr to IL-13 (50 ng/ml); for CD23a mRNA expression in vehicle-exposed ASM cells: human ASM cells exposed 12 hr to vehicle
Source text: The following materials and methods are provided to facilitate practice of the present invention: • Materials: All chemicals were purchased from Sigma-Aldrich unless otherwise indicated. The human ASM cells were obtained from BioWhittaker, Inc. • Animals: Adult New Zealand White rabbits were used in this study, which was approved by the Biosafety and Animal Research Committee of the Joseph Stokes Research Institute at Children's Hospital of Philadelphia. The animals had no signs of respiratory disease for several weeks before the study, and their care and use were in accordance with the “Guide for the Care and Use of Laboratory Animals” prepared by the Institute of Laboratory Animal Resources, National Research Council. • Immunization protocol: Rabbits were actively immunized by an intra-peritoneal injection of 1 ml of an emulsion containing ovalbumin (OVA; 2.5 mg in PBS) mixed in equal part with adjuvant, administered each week for 3 weeks and, thereafter, every alternate week for a one month period. Non-immunized rabbits receiving injections with PBS alone served as controls. Thereafter, the rabbits were challenged by airway administration of a 3% solution of OVA. […] Approximately 40 ml of blood was then drawn via an ear vein from each of the immunized and control rabbits for preparation of asthmatic and non-asthmatic serum samples to be used for subsequent passive sensitization of ASM tissue segments isolated from naïve rabbits, as described below. • siRNA-mediated knockdown of CD23 in cultured ASM cells: Human ASM cells were grown in SmBm media supplemented with 10% FBS (BioWhittaker) and maintained throughout in a humidified incubator containing 5% CO2 in air at 37° C. The experimental protocols involved seeding the cells into 6-well plates and, at ˜40% confluency, the medium was replaced with the reduced serum-containing medium, Opti-MEM (Invitrogen). Separate preparations of cells were then transfected twice during a 24-hr interval with each of four different siRNA duplexes targeted against human CD23, using Oligofectamine (Invitrogen) as the transfection agent. The siRNA preparations were purchased from Applied Biosystems and comprised the following nucleotide sequences:
Additionally, cell preparations were also transfected with either a pool of these CD23-directed siRNA duplexes, a non-targeted negative control (scrambled) siRNA duplex, or a negative control duplex labeled with the […], Cy™3, to visualize siRNA transfection efficiency. The siRNAs were applied to each well at a final concentration of 100 nM for each siRNA duplex. After 3 days, the cells were exposed for 12 hr to either vehicle alone or the pro-asthmatic cytokine, IL-13 (50 ng/ml), which is known to upregulate CD23 expression in human monocytes. The cells were subsequently examined for induced changes in mRNA expression of CD23a. • Detection of CD23 mRNA transcripts: Total RNA was extracted from the cultured ASM cells using the TRIzol method (Invitrogen), and cDNAs were isolated by RT-PCR using the SuperScript First Strand Synthesis System kit from Invitrogen, with the following oligonucleotide primer sets (Integrated DNA Technologies): for CD23a, (SEQ ID NO: 11) 5′-[…]-3′ (forward) and (SEQ ID NO: 12) 5′-[…]-3′ (reverse); and for β-actin, (SEQ ID NO: 13) 5′-[…]-3′ (forward) and (SEQ ID NO: 14) 5′-[…]-3′ (reverse). The reaction volume was 20 μl and cycling conditions used were 35 cycles of 30 sec denaturation at 95° C., followed by 30 sec annealing at 60° C. and elongation at 72° C. for 30 sec. Ex-Tag (Takara Biotechnology) was used as DNA polymerase. • Pharmacodynamic studies of constrictor and relaxation responsiveness in rabbit ASM tissues: Following initial sedation and subsequent general anesthesia with intramuscular injections of xylazine (10 mg/kg) and ketamine (50 mg/kg), respectively, rabbits were sacrificed with an intravenously administered overdose of sodium pentobarbital (100 mg/kg). […]

| Compound | Induced pro-asthmatic change in constrictor responsiveness to ACh (rabbit ASM tissues; FIG. 5A) | Induced pro-asthmatic change in relaxation responsiveness to isoproterenol (rabbit ASM tissues; FIG. 5B) | Induced upregulation of cAMP PDE4 activity (cAMP PDE4 activity) | CD23a mRNA expression (constitutive) (CD23a mRNA) | CD23a mRNA expression (constitutive) (CD23a mRNA; listed as 106645) | CD23a mRNA expression in IL-13-treated ASM cells (CD23a mRNA) | CD23a mRNA expression in vehicle-exposed ASM cells (CD23a mRNA) | CD23a mRNA expression (constitutive) (CD23a mRNA; listed as 111060) |
| --- | --- | --- | --- | --- | --- | --- | --- | --- |
| COc1ccc(C2CNC(=O)C2)cc1OC1CCCC1 (centres unmarked) [rolipram] | prevented | prevented | inhibitory effect | – | – | – | – | – |
| #106645: siRNA duplex against human CD23 (Applied Biosystems): sense 5′-GGUGACAAAGCUAAGGAUGtt-3′, antisense 5′-CAUCCUUAGCUUUGUCACCtc-3′ (sense GGUGACAAAGCUAAGGAUGTT; antisense CAUCCUUAGCUUUGUCACCTC; chemistry not given here) | – | – | – | distinctly inhibited | marked inhibition | markedly inhibited | markedly inhibited | – |
| #106644: siRNA duplex against human CD23 (Applied Biosystems): sense 5′-GGAGGUGACAAAGCUAAGGtt-3′, antisense 5′-CCUUAGCUUUGUCACCUCCtc-3′ (sense GGAGGUGACAAAGCUAAGGTT; antisense CCUUAGCUUUGUCACCUCCTC; chemistry not given here) | – | – | – | no effect | – | no effect | no effect | – |
| #111062: siRNA duplex against human CD23 (Applied Biosystems): sense 5′-CGAAGCUUCAGAUUUGCUGtt-3′, antisense 5′-CAGCAAAUCUGAAGCUUCGtt-3′ (sense CGAAGCUUCAGAUUUGCUGTT; antisense CAGCAAAUCUGAAGCUUCGTT; chemistry not given here) | – | – | – | no effect | – | no effect | no effect | – |
| #111060: siRNA duplex against human CD23 (Applied Biosystems): sense 5′-GGAAUUGAACGAGAGGAACtt-3′, antisense 5′-GUUCCUCUCGUUCAAUUCCtg-3′ (sense GGAAUUGAACGAGAGGAACTT; antisense GUUCCUCUCGUUCAAUUCCTG; chemistry not given here) | – | – | – | distinctly inhibited | – | markedly inhibited | markedly inhibited | marked inhibition |
